# Measured values as given in ChEMBL document CHEMBL1629584, “Inactivation of KsgA, a 16S rRNA methyltransferase, causes vigorous emergence of mutants with high-level kasugamycin resistance” (2009).
# Columns and labels:
# Type in all cases: functional
# Bacillus subtilis [1] = assay: Antibacterial activity against Bacillus subtilis isolate 19 harboring 230A-G KsgA mutant and expressing amino acid exchange at A61G, E77K in KsgA gene
# Bacillus subtilis [2] = assay: Antibacterial activity against Bacillus subtilis isolate KO-876 KsgA mutant and harboring 22C-GT speD mutant after 2 days; details: isolate KO-876, 48 h
# Bacillus subtilis [3] = assay: Antibacterial activity against wild-type Bacillus subtilis 168 after 15 hrs; details: subsp. subtilis str. 168, 15 h
# Bacillus subtilis [4] = assay: Antibacterial activity against Bacillus subtilis isolate KO-878 KsgA mutant and harboring 193T-A speD mutant and expressing amino acid exchange at S65T in speD gene after 2 days; details: isolate KO-878, 48 h
# Bacillus subtilis [5] = assay: Antibacterial activity against Bacillus subtilis isolate 14 harboring 608C-T KsgA mutant and expressing amino acid exchange at S203F in KsgA gene
# Bacillus subtilis [6] = assay: Antibacterial activity against Bacillus subtilis isolate 9 harboring 515G-GG KsgA mutant and expressing amino acid exchange at S173L,Asn 200 -stop codon in KsgA gene
# Bacillus subtilis [7] = assay: Antibacterial activity against Bacillus subtilis isolate KO-894 speD mutant after 2 days; details: isolate KO-894, 48 h
# Bacillus subtilis [8] = assay: Antibacterial activity against Bacillus subtilis isolate 6 harboring 272C-G KsgA mutant and expressing amino acid exchange at Ser 91 -stop codon in KsgA gene
# Escherichia coli = assay: Antibacterial activity against Escherichia coli BW25113 after 15 hrs; details: BW25113, 15 h
# Bacillus subtilis [9] = assay: Antibacterial activity against Bacillus subtilis RIK543 after 15 hrs; details: RIK543, 15 h
# Bacillus subtilis [10] = assay: Antibacterial activity against Bacillus subtilis isolate 2 harboring 708-717 deficient KsgA and expressing amino acid exchange at K235S, Leu240-stop codon in KsgA gene
# Bacillus subtilis [11] = assay: Antibacterial activity against Bacillus subtilis isolate 3 harboring 301C-T KsgA and expressing amino acid exchange at Gln101-stop codon in KsgA gene
# Bacillus subtilis [12] = assay: Antibacterial activity against Bacillus subtilis isolate 7 harboring 198T-TT KsgA mutant and expressing amino acid exchange at A67C, Glu 77- stop codon in KsgA gene
# Bacillus subtilis [13] = assay: Antibacterial activity against Bacillus subtilis isolate 17 harboring 709-850 deficient KsgA mutant and expressing amino acid exchange at K237L in KsgA gene
# Bacillus subtilis [14] = assay: Antibacterial activity against Bacillus subtilis isolate 5 harboring 478-492 deficient KsgA and expressing amino acid exchange at Glu 160, Ala 164 deletion in KsgA gene
# Bacillus subtilis [15] = assay: Antibacterial activity against Bacillus subtilis isolate 1 harboring 253-261 deficient KsgA and expressing amino acid exchange at 85-87 Ile, Leu, Lys-deletionin KsgA gene
# Bacillus subtilis [16] = assay: Antibacterial activity against Bacillus subtilis isolate 16 harboring 181G-GG KsgA mutant and expressing amino acid exchange at A61G, Glu 77- stop codon in KsgA gene
# Bacillus subtilis [17] = assay: Antibacterial activity against Bacillus subtilis isolate 4 harboring 709-850 deficient KsgA and expressing amino acid exchange at K237L in KsgA gene
# Bacillus subtilis [18] = assay: Antibacterial activity against Bacillus subtilis isolate 12 harboring 597-615 deficient KsgA mutant and expressing amino acid exchange at N200F, Asp 202- stop codon in KsgA gene
# Bacillus subtilis [19] = assay: Antibacterial activity against Bacillus subtilis isolate 8 harboring 515G-GGG KsgA mutant and expressing amino acid exchange at S173A, Met 188 -stop codon in KsgA gene
# Bacillus subtilis [20] = assay: Antibacterial activity against Bacillus subtilis isolate 15 harboring 324C-CTC KsgA mutant and expressing amino acid exchange at K109S, Val 125 - stop codon in KsgA gene
# Bacillus subtilis [21] = assay: Antibacterial activity against Bacillus subtilis isolate KO-847 KsgA mutant after 2 days; details: isolate KO-847, 48 h
# Bacillus subtilis [22] = assay: Antibacterial activity against Bacillus subtilis isolate 18 harboring 495-525 deficient KsgA mutant and expressing amino acid exchange at N165E, Ala 177- stop codon in KsgA gene
# Bacillus subtilis [23] = assay: Antibacterial activity against Bacillus subtilis isolate KO-879 KsgA mutant and harboring 236G-T speD mutant and expressing amino acid exchange at S79I in speD gene after 2 days; details: isolate KO-879, 48 h
# Bacillus subtilis [24] = assay: Antibacterial activity against Bacillus subtilis isolate 11 harboring 274-295 deficient KsgA mutant and expressing amino acid exchange at P92F, Thr 97- stop codon in KsgA gene
# Bacillus subtilis [25] = assay: Antibacterial activity against Bacillus subtilis isolate 13 harboring 393C-G KsgA mutant and expressing amino acid exchange at Tyr 131- stop codon in KsgA gene
# Bacillus subtilis [26] = assay: Antibacterial activity against Bacillus subtilis isolate KO-875 KsgA mutant and harboring 19G-T speD mutant and expressing amino acid exchange at G7Win speD gene after 2 days; details: isolate KO-875, 48 h
# Bacillus subtilis [27] = assay: Antibacterial activity against Bacillus subtilis isolate 10 harboring 706C-T KsgA mutant and expressing amino acid exchange at R236C in KsgA gene
# Bacillus subtilis [28] = assay: Antibacterial activity against Bacillus subtilis isolate KO-877 KsgA mutant and harboring 191A-T speD mutant and expressing amino acid exchange at G64Vin speD gene after 2 days; details: isolate KO-877, 48 h
compound,measurement,setting,value
C[C@H]1O[C@H](O[C@H]2[C@H](O)[C@@H](O)[C@@H](O)[C@H](O)[C@@H]2O)[C@@H](N)C[C@@H]1NC(=N)C(=O)O [KASUGAMYCIN],MIC,Bacillus subtilis [1],1500 µg/mL
same,MIC,Bacillus subtilis [2],15000 µg/mL
same,MIC,Bacillus subtilis [3],1500 µg/mL
same,MIC,Bacillus subtilis [4],15000 µg/mL
same,MIC,Bacillus subtilis [5],1500 µg/mL
same,MIC,Bacillus subtilis [6],1500 µg/mL
same,MIC,Bacillus subtilis [7],4000 µg/mL
same,MIC,Bacillus subtilis [8],1500 µg/mL
same,MIC,Escherichia coli,200 µg/mL
same,MIC,Bacillus subtilis [9],500 µg/mL
same,MIC,Bacillus subtilis [10],1500 µg/mL
same,MIC,Bacillus subtilis [11],1500 µg/mL
same,MIC,Bacillus subtilis [12],1500 µg/mL
same,MIC,Bacillus subtilis [13],1500 µg/mL
same,MIC,Bacillus subtilis [14],1500 µg/mL
same,MIC,Bacillus subtilis [15],1500 µg/mL
same,MIC,Bacillus subtilis [16],1500 µg/mL
same,MIC,Bacillus subtilis [17],1500 µg/mL
same,MIC,Bacillus subtilis [18],1500 µg/mL
same,MIC,Bacillus subtilis [19],1500 µg/mL
same,MIC,Bacillus subtilis [20],1500 µg/mL
same,MIC,Bacillus subtilis [21],5000 µg/mL
same,MIC,Bacillus subtilis [22],1500 µg/mL
same,MIC,Bacillus subtilis [23],15000 µg/mL
same,MIC,Bacillus subtilis [24],1500 µg/mL
same,MIC,Bacillus subtilis [25],1500 µg/mL
same,MIC,Bacillus subtilis [26],15000 µg/mL
same,MIC,Bacillus subtilis [27],1500 µg/mL
same,MIC,Bacillus subtilis [28],15000 µg/mL
CO[C@H]1/C=C/O[C@@]2(C)Oc3c(C)c(O)c4c(O)c(c(/C=N/N5CCN(C)CC5)c(O)c4c3C2=O)NC(=O)/C(C)=C\C=C\[C@H](C)[C@H](O)[C@@H](C)[C@@H](O)[C@@H](C)[C@H](OC(C)=O)[C@@H]1C [RIFAMPIN],MIC,Bacillus subtilis [3],0.1 µg/mL
same,MIC,Bacillus subtilis [9],0.01 µg/mL
CN[C@@H]1[C@H](O[C@H]2[C@H](O[C@H]3[C@H](O)[C@@H](O)[C@H](N=C(N)N)[C@@H](O)[C@@H]3N=C(N)N)O[C@@H](C)[C@]2(O)C=O)O[C@@H](CO)[C@H](O)[C@H]1O [STREPTOMYCIN],MIC,Bacillus subtilis [3],15 µg/mL
same,MIC,Bacillus subtilis [9],5 µg/mL
C=C(NC(=O)C(=C)NC(=O)c1csc(C2=N[C@@H]3c4csc(n4)[C@H]4NC(=O)c5csc(n5)[C@H]([C@](C)(O)[C@@H](C)O)NC(=O)[C@H]5CSC(=N5)/C(=C/C)NC(=O)[C@H]([C@@H](C)O)NC(=O)c5csc(n5)[C@]3(CC2)NC(=O)[C@H](C)NC(=O)C(=C)NC(=O)[C@H](C)NC(=O)[C@H]([C@@H](C)CC)N[C@@H]2C=Cc3c([C@H](C)O)cc(nc3[C@H]2O)C(=O)O[C@@H]4C)n1)C(N)=O [THIOSTREPTON],MIC,Bacillus subtilis [3],0.04 µg/mL
same,MIC,Bacillus subtilis [9],0.02 µg/mL
